Reference: PubChem BioAssay AID2060498 (Molecular Pharmacology Branch, DTP, NCI, 2025)
pIC50: −log10 of the molar value.

Test system: 171881-019-R-J1-PDC tumor spheroids, viability
Test: Anticancer human tumor 171881-019-R-J1-PDC patient-derived invasive breast carcinoma cell line growth inhibition [GQUAD]
Conditions: spheroids with HUVEC and MSC; for pIC50: curve of first compound; for viability, T/C: stronger effect = lower value
Procedure, shortened: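 Multi-cell-type spheroids of tumor cells with HUVEC and mesenchymal stem cells, treated with drug combinations. Concentrations descend in half-log steps from near clinical Cmax, or from 10 microM where Cmax is unknown; viability read-out.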

[1] = second compound 0.0316 µM, first compound 0.0316 µM
[2] = second compound 0.0316 µM, first compound 0.1 µM
[3] = second compound 0.0316 µM, first compound 0.316 µM
[4] = second compound 0.0316 µM, first compound 1 µM
[5] = second compound 0.0316 µM, first compound 3.16 µM
[6] = second compound 0.0316 µM, first compound 10 µM
[7] = second compound 0.1 µM, first compound 0.0316 µM
[8] = second compound 0.1 µM, first compound 0.1 µM
[9] = second compound 0.1 µM, first compound 0.316 µM
[10] = second compound 0.1 µM, first compound 1 µM
[11] = second compound 0.1 µM, first compound 3.16 µM
[12] = second compound 0.1 µM, first compound 10 µM
[13] = second compound 0.316 µM, first compound 0.0316 µM
[14] = second compound 0.316 µM, first compound 0.1 µM
[15] = second compound 0.316 µM, first compound 0.316 µM
[16] = second compound 0.316 µM, first compound 1 µM
[17] = second compound 0.316 µM, first compound 3.16 µM
[18] = second compound 0.316 µM, first compound 10 µM
[19] = second compound 1 µM, first compound 0.0316 µM
[20] = second compound 1 µM, first compound 0.1 µM
[21] = second compound 1 µM, first compound 0.316 µM
[22] = second compound 1 µM, first compound 1 µM
[23] = second compound 1 µM, first compound 3.16 µM
[24] = second compound 1 µM, first compound 10 µM
[25] = second compound 3.16 µM, first compound 0.0316 µM
[26] = second compound 3.16 µM, first compound 0.1 µM
[27] = second compound 3.16 µM, first compound 0.316 µM
[28] = second compound 3.16 µM, first compound 1 µM
[29] = second compound 3.16 µM, first compound 3.16 µM
[30] = second compound 3.16 µM, first compound 10 µM
[31] = second compound 10 µM, first compound 0.0316 µM
[32] = second compound 10 µM, first compound 0.1 µM
[33] = second compound 10 µM, first compound 0.316 µM
[34] = second compound 10 µM, first compound 1 µM
[35] = second compound 10 µM, first compound 3.16 µM
[36] = second compound 10 µM, first compound 10 µM
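Note: spheroids exposed to compounds for 7 days.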
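Throughout, for viability, T/C: 100% = DMSO vehicle control viability.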

CC1COCCN1c1cc(C2(S(C)(=N)=O)CC2)nc(-c2ccnc3[nH]ccc23)n1 (stereo not drawn) + Cc1[nH]c2ccc(F)cc2c1-c1nc2c3cccnc3c3ncccc3c2[nH]1
pIC50 (second compound 0.0316 µM): 5.93
pIC50 (second compound 0.1 µM): 5.95
pIC50 (second compound 0.316 µM): 5.95
pIC50 (second compound 1 µM): 6.13
pIC50 (second compound 3.16 µM): > 7.50
pIC50 (second compound 10 µM): > 7.50
viability, T/C [1]: 97.5%
viability, T/C [2]: 97%
viability, T/C [3]: 87.4%
viability, T/C [4]: 55.4%
viability, T/C [5]: 18.6%
viability, T/C [6]: 9.09%
viability, T/C [7]: 103%
viability, T/C [8]: 100%
viability, T/C [9]: 87.7%
viability, T/C [10]: 53.6%
viability, T/C [11]: 21.1%
viability, T/C [12]: 10.5%
viability, T/C [13]: 97.2%
viability, T/C [14]: 75.4%
viability, T/C [15]: 86.2%
viability, T/C [16]: 51.6%
viability, T/C [17]: 21.9%
viability, T/C [18]: 10.2%
viability, T/C [19]: 78.2%
viability, T/C [20]: 76.6%
viability, T/C [21]: 75.6%
viability, T/C [22]: 41%
viability, T/C [23]: 18.9%
viability, T/C [24]: 9.88%
viability, T/C [25]: 21.5%
viability, T/C [26]: 15.3%
viability, T/C [27]: 17.2%
viability, T/C [28]: 13.9%
viability, T/C [29]: 10.2%
viability, T/C [30]: 6.81%
viability, T/C [31]: 46%
viability, T/C [32]: 49.4%
viability, T/C [33]: 36.5%
viability, T/C [34]: 22%
viability, T/C [35]: 14.5%
viability, T/C [36]: 8.3%

COc1cccc2c1C(=O)c1c(O)c3c(c(O)c1C2=O)CC(O)(C(=O)CO)CC3OC1CC(N)C(O)C(C)O1 (stereo not drawn) + Cc1[nH]c2ccc(F)cc2c1-c1nc2c3cccnc3c3ncccc3c2[nH]1
pIC50 (second compound 0.0316 µM): 6.87
pIC50 (second compound 0.1 µM): 6.83
pIC50 (second compound 0.316 µM): 6.81
pIC50 (second compound 1 µM): 6.93
pIC50 (second compound 3.16 µM): > 7.50
pIC50 (second compound 10 µM): > 7.50
viability, T/C [1]: 89.8%
viability, T/C [2]: 51.9%
viability, T/C [3]: 38.1%
viability, T/C [4]: 16.4%
viability, T/C [5]: 0.24%
viability, T/C [6]: 0.22%
viability, T/C [7]: 85.3%
viability, T/C [8]: 55.3%
viability, T/C [9]: 37.9%
viability, T/C [10]: 16.5%
viability, T/C [11]: 0.15%
viability, T/C [12]: 0.52%
viability, T/C [13]: 82.8%
viability, T/C [14]: 56.4%
viability, T/C [15]: 38.7%
viability, T/C [16]: 13.9%
viability, T/C [17]: 0.13%
viability, T/C [18]: 0.5%
viability, T/C [19]: 76.2%
viability, T/C [20]: 47%
viability, T/C [21]: 40.3%
viability, T/C [22]: 14.7%
viability, T/C [23]: 0.3%
viability, T/C [24]: 0.77%
viability, T/C [25]: 22.2%
viability, T/C [26]: 17.1%
viability, T/C [27]: 18.2%
viability, T/C [28]: 9.24%
viability, T/C [29]: 0.43%
viability, T/C [30]: 0.81%
viability, T/C [31]: 38%
viability, T/C [32]: 38.9%
viability, T/C [33]: 23.1%
viability, T/C [34]: 16.5%
viability, T/C [35]: 0.93%
viability, T/C [36]: 0.93%

O=C(NO)c1cnc(N2CCN(S(=O)(=O)c3ccc4ccccc4c3)CC2)nc1 + Cc1[nH]c2ccc(F)cc2c1-c1nc2c3cccnc3c3ncccc3c2[nH]1
pIC50 (second compound 0.0316 µM): 6.46
pIC50 (second compound 0.1 µM): 6.39
pIC50 (second compound 0.316 µM): 6.47
pIC50 (second compound 1 µM): 6.83
pIC50 (second compound 3.16 µM): > 7.50
pIC50 (second compound 10 µM): > 7.50
viability, T/C [1]: 93.7%
viability, T/C [2]: 83.3%
viability, T/C [3]: 55%
viability, T/C [4]: 1.74%
viability, T/C [5]: 0.09%
viability, T/C [6]: 0.15%
viability, T/C [7]: 88.4%
viability, T/C [8]: 78.7%
viability, T/C [9]: 63.8%
viability, T/C [10]: 2.75%
viability, T/C [11]: 0.09%
viability, T/C [12]: 0.11%
viability, T/C [13]: 73.3%
viability, T/C [14]: 65.3%
viability, T/C [15]: 53.4%
viability, T/C [16]: 2.53%
viability, T/C [17]: 0.14%
viability, T/C [18]: 0.21%
viability, T/C [19]: 60.2%
viability, T/C [20]: 49.3%
viability, T/C [21]: 41.2%
viability, T/C [22]: 1.79%
viability, T/C [23]: 0.34%
viability, T/C [24]: 0.4%
viability, T/C [25]: 7.54%
viability, T/C [26]: 5.44%
viability, T/C [27]: 2.89%
viability, T/C [28]: 0.17%
viability, T/C [29]: 0.14%
viability, T/C [30]: 0.28%
viability, T/C [31]: 34.9%
viability, T/C [32]: 31.9%
viability, T/C [33]: 24.6%
viability, T/C [34]: 0.85%
viability, T/C [35]: 0.2%
viability, T/C [36]: 0.32%

CC1COCCN1c1cc(-c2ccnn2C)c2ccnc(-c3ccn[nH]3)c2n1 (stereo not drawn) + Cc1cnc(CNC(=O)c2c(=O)c3ccc(N4CCCN(C)CC4)nc3n3c2sc2ccccc23)cn1
pIC50 (second compound 0.0316 µM): > 7.50
pIC50 (second compound 0.1 µM): > 7.50
pIC50 (second compound 0.316 µM): > 7.50
pIC50 (second compound 1 µM): > 7.50
pIC50 (second compound 3.16 µM): 7.43
pIC50 (second compound 10 µM): > 7.50
viability, T/C [1]: 41.9%
viability, T/C [2]: 22.4%
viability, T/C [3]: 13.9%
viability, T/C [4]: 8.64%
viability, T/C [5]: 5.53%
viability, T/C [6]: 5.12%
viability, T/C [7]: 42.5%
viability, T/C [8]: 24.9%
viability, T/C [9]: 14.8%
viability, T/C [10]: 8.31%
viability, T/C [11]: 5.49%
viability, T/C [12]: 5.8%
viability, T/C [13]: 41.5%
viability, T/C [14]: 27.8%
viability, T/C [15]: 17.2%
viability, T/C [16]: 9.26%
viability, T/C [17]: 5.7%
viability, T/C [18]: 5.04%
viability, T/C [19]: 46.4%
viability, T/C [20]: 33%
viability, T/C [21]: 21.6%
viability, T/C [22]: 11.2%
viability, T/C [23]: 6.82%
viability, T/C [24]: 4.69%
viability, T/C [25]: 52.4%
viability, T/C [26]: 35.1%
viability, T/C [27]: 25.4%
viability, T/C [28]: 13.4%
viability, T/C [29]: 6.44%
viability, T/C [30]: 4.66%
viability, T/C [31]: 48.2%
viability, T/C [32]: 38.8%
viability, T/C [33]: 24.1%
viability, T/C [34]: 13.9%
viability, T/C [35]: 7.41%
viability, T/C [36]: 4.56%
